Results from patent US6319897A, “Peptides which inhibit complement activation” (priority 1999, dated 2001).
Read-outs that look alike come from different tables or passages of the source. Where a SMILES comes first, the peptide text is derived from it. Bridges are numbered along the chain shown (N, C = ends). The star is where a group is joined. Cam = NC(=O)C*

Legend:
[1] = molecular target: alternative pathway of complement activation (Homo sapiens, UniProt P01024); assay: Hemolytic assay, alternative pathway: lysis of rabbit erythrocytes in normal human serum with MgEGTA; assay type: cell-based
Experimental: Inhibition of the alternative pathway was measured by using rabbit erythrocytes in the presence of MgEGTA (FIG. 3A); inhibition of lysis of antibody-coated sheep erythrocytes was used as an indicator of inhibition of the classical pathway (FIG. 3B).
Inhibition of classical and alternative pathway activity by the peptides was measured. […] The reaction mixture was incubated at 37° C. for 1 hour and centrifuged. […] The effect of peptides on the alternative pathway was determined by measuring the lysis of rabbit erythrocytes (Er) in NHS. Various concentrations of peptide were mixed with 5 μl of NHS, 5 μl of MgEGTA and 10 μl of Er (1×10^9 /ml) and brought to a final volume of 100 μl in GVB. The reaction mixture was incubated at 37° C. for 20 minutes and stopped by adding 200 μl of GVBE. […] The percentage of lysis was normalized by considering 100% lysis to be equal to the lysis occurring in the absence of the peptide.

[2] = tested on: complement; assay: Complement-mediated hemolytic assay (pathway not stated); assay type: cell-based
Experimental: Inhibition of classical and alternative pathway activity by the peptides was measured. To determine the effect of peptides on the classical pathway, various concentrations of peptide were mixed with 11 μl of normal human serum (NHS, diluted 1:10 in GVB^++) and 5 μl of sheep erythrocytes coated with antibodies (EA) (1×10^9 /ml) and GVB^++ was added to give a total volume of 250 μl. The reaction mixture was incubated at 37° C. for 1 hour and centrifuged. The percentage of lysis was determined by measuring the optical density of the supernatant at 414 nm. The effect of peptides on the alternative pathway was determined by measuring the lysis of rabbit erythrocytes (Er) in NHS. Various concentrations of peptide were mixed with 5 μl of NHS, 5 μl of MgEGTA and 10 μl of Er (1×10^9 /ml) and brought to a final volume of 100 μl in GVB. The reaction mixture was incubated at 37° C. for 20 minutes and stopped by adding 200 μl of GVBE. After centrifugation, hemolysis was determined at 414 nm. The percentage of lysis was normalized by considering 100% lysis to be equal to the lysis occurring in the absence of the peptide.

[3] = read-out: ALTERNATIVE PATHWAY IC50

Chain of alternative pathway of complement activation (P01024 23-1663): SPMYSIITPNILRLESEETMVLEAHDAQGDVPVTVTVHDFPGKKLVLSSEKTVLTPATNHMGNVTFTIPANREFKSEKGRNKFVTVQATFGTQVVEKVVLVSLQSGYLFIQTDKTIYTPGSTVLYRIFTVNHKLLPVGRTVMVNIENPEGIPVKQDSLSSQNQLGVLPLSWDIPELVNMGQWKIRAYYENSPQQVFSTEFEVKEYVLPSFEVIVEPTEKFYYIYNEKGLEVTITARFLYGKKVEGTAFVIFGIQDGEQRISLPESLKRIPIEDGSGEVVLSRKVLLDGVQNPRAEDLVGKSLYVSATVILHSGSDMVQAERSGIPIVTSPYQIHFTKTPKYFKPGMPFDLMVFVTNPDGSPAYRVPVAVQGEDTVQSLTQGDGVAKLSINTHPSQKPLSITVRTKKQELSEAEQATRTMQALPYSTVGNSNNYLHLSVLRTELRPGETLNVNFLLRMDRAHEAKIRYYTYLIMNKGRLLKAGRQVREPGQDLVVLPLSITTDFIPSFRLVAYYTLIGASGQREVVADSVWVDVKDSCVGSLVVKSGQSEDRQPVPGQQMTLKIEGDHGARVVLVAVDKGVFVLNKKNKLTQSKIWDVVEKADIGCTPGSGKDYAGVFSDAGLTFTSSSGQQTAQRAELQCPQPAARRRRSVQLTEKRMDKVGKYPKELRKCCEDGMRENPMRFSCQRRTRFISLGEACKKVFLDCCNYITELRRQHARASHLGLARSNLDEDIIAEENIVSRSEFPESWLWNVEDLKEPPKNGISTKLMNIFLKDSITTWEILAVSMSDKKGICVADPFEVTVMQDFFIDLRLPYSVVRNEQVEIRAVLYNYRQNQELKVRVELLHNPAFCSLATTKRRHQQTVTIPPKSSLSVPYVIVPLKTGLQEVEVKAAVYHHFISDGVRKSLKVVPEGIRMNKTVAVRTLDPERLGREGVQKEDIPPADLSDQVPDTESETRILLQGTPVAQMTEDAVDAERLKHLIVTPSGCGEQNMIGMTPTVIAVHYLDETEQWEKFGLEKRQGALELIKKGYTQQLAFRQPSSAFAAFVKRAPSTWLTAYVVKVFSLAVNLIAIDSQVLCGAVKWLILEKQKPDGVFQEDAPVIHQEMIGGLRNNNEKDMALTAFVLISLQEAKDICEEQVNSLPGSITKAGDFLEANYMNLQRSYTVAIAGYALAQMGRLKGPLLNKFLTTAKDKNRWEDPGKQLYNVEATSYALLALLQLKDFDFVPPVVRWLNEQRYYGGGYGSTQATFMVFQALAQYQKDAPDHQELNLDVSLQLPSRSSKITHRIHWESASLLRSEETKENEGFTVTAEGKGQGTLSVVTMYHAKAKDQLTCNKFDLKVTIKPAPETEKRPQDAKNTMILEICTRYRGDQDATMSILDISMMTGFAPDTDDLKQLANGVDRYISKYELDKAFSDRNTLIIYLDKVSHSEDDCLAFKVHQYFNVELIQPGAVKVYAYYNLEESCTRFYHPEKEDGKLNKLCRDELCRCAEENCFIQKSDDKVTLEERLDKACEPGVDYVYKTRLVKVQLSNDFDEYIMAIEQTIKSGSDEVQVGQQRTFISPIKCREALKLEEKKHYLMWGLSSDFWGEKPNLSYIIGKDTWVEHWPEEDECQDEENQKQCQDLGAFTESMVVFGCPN

## CC[C@H](C)[C@H](N)C(=O)N[C@@H](CSCC(N)=O)C(=O)N[C@H](C(=O)N[C@H](C(=O)N[C@@H](CCC(N)=O)C(=O)N[C@@H](CC(=O)O)C(=O)N[C@@H](Cc1c[nH]c2ccccc12)C(=O)NCC(=O)N[C@@H](Cc1c[nH]cn1)C(=O)N[C@@H](Cc1c[nH]cn1)C(=O)N[C@@H](CCCNC(=N)N)C(=O)N[C@@H](CSCC(N)=O)C(=O)N[C@H](C(=O)N[C@@H](C)C(=O)NCC(=O)N[C@@H](Cc1c[nH]cn1)C(=O)N[C@@H](CCSC)C(=O)N[C@@H](C)C(=O)N[C@@H](CC(N)=O)C(=O)N[C@@H](CC(C)C)C(=O)N[C@H](C(=O)N[C@@H](CO)C(=O)N[C@@H](Cc1c[nH]cn1)C(=O)N[C@@H](C)C(=O)N[C@@H](CO)C(=O)N[C@@H](C)C(=O)N[C@H](C(N)=O)[C@@H](C)CC)[C@@H](C)O)[C@@H](C)O)C(C)C)C(C)C [II] (H-IC(Cam)VVQDWGHHRC(Cam)TAGHMANLTSHASAI-NH2)
[1]; [3]
  IC50: > 300 µM

## C[C@@H](O)[C@H](NC(=O)[C@@H]1CSSC[C@H](N)C(=O)N[C@@H](Cc2c[nH]c3ccccc23)C(=O)NCC(=O)N[C@@H](Cc2c[nH]cn2)C(=O)N[C@@H](Cc2c[nH]cn2)C(=O)N[C@@H](CCCNC(=N)N)C(=O)N1)C(N)=O [IX] (H-CWGHHRCT-NH2; disulfide 1-7)
[1]; [3]
  IC50: > 600 µM

## CC[C@H](C)[C@H](N)C(=O)N[C@@H](CSCC(N)=O)C(=O)N[C@H](C(=O)N[C@H](C(=O)N[C@@H](CCC(N)=O)C(=O)N[C@@H](CC(=O)O)C(=O)N[C@@H](Cc1c[nH]c2ccccc12)C(=O)NCC(=O)N[C@@H](Cc1c[nH]cn1)C(=O)N[C@@H](Cc1c[nH]cn1)C(=O)N[C@@H](CCCNC(=N)N)C(=O)N[C@@H](CSCC(N)=O)C(=O)N[C@H](C(N)=O)[C@@H](C)O)C(C)C)C(C)C [Peptide V]
[1]; [3]
  IC50: > 300 µM

## C[C@@H](O)[C@H](NC(=O)[C@@H]1CSSC[C@H](N)C(=O)NCC(=O)N[C@@H](Cc2c[nH]cn2)C(=O)N[C@@H](Cc2c[nH]cn2)C(=O)N[C@@H](CCCNC(=N)N)C(=O)N1)C(N)=O [VIII] (H-CGHHRCT-NH2; disulfide 1-6)
[1]; [3]
  IC50: > 600 µM

## C[C@@H](O)[C@H](NC(=O)[C@@H]1CSSC[C@H](N)C(=O)N[C@@H](Cc2c[nH]cn2)C(=O)N[C@@H](Cc2c[nH]cn2)C(=O)N[C@@H](CCCNC(=N)N)C(=O)N1)C(N)=O [VII] (H-CHHRCT-NH2; disulfide 1-5)
[1]; [3]
  IC50: > 600 µM

## CC(C)[C@@H]1NC(=O)[C@H](C(C)C)NC(=O)[C@@H](N)CSSC[C@@H](C(N)=O)NC(=O)[C@H](CCCNC(=N)N)NC(=O)[C@H](Cc2c[nH]cn2)NC(=O)[C@H](Cc2c[nH]cn2)NC(=O)CNC(=O)[C@H](Cc2c[nH]c3ccccc23)NC(=O)[C@H](CC(=O)O)NC(=O)[C@H](CCC(N)=O)NC1=O [VI] (H-CVVQDWGHHRC-NH2; disulfide 1-11)
[1]; read-out: A[…] IC50
  IC50: 33 µM

## CC(C)[C@@H]1NC(=O)[C@H](C(C)C)NC(=O)[C@@H](N)CSSC[C@@H](C(N)=O)NC(=O)[C@H](Cc2c[nH]c3ccccc23)NC(=O)[C@H](CC(=O)O)NC(=O)[C@H](CCC(N)=O)NC1=O [XIII] (H-CVVQDWC-NH2; disulfide 1-7)
[1]; [3]
  IC50: > 600 µM

## CC(C)[C@@H]1NC(=O)[C@@H](N)CSSC[C@@H](C(=O)N[C@H](C(N)=O)[C@@H](C)O)NC(=O)[C@H](CCCNC(=N)N)NC(=O)[C@H](Cc2c[nH]cn2)NC(=O)[C@H](Cc2c[nH]cn2)NC(=O)CNC(=O)[C@H](Cc2c[nH]c3ccccc23)NC(=O)[C@H](CC(=O)O)NC(=O)[C@H](CCC(N)=O)NC1=O [XII] (H-CVQDWGHHRCT-NH2; disulfide 1-10)
[1]; [3]
  IC50: > 600 µM

## CC(C)[C@@H]1NC(=O)[C@H](C(C)C)NC(=O)[C@@H](N)CSSC[C@@H](C(N)=O)NC(=O)[C@H](Cc2c[nH]cn2)NC(=O)CNC(=O)[C@H](Cc2c[nH]c3ccccc23)NC(=O)[C@H](CC(=O)O)NC(=O)[C@H](CCC(N)=O)NC1=O [XIV] (H-CVVQDWGHC-NH2; disulfide 1-9)
[1]; [3]
  IC50: > 600 µM

## CC(C)[C@@H]1NC(=O)[C@H](C(C)C)NC(=O)[C@@H](N)CSSC[C@@H](C(N)=O)NC(=O)[C@H](CCCNC(=N)N)NC(=O)[C@H](Cc2c[nH]cn2)NC(=O)[C@H](Cc2c[nH]cn2)NC(=O)CNC(=O)[C@H](C)NC(=O)[C@H](CC(=O)O)NC(=O)[C@H](CCC(N)=O)NC1=O [XIX] (H-CVVQDAGHHRC-NH2; disulfide 1-11)
[1]; [3]
  IC50: 182 µM

## C[C@@H](O)[C@H](NC(=O)[C@@H]1CSSC[C@H](N)C(=O)N[C@@H](CCC(N)=O)C(=O)N[C@@H](CC(=O)O)C(=O)N[C@@H](Cc2c[nH]c3ccccc23)C(=O)NCC(=O)N[C@@H](Cc2c[nH]cn2)C(=O)N[C@@H](Cc2c[nH]cn2)C(=O)N[C@@H](CCCNC(=N)N)C(=O)N1)C(N)=O [XI] (H-CQDWGHHRCT-NH2; disulfide 1-9)
[1]; [3]
  IC50: > 600 µM

## CC(C)[C@@H]1NC(=O)[C@H](C(C)C)NC(=O)[C@@H](N)CSSC[C@@H](C(N)=O)NC(=O)[C@H](CCCNC(=N)N)NC(=O)[C@H](Cc2c[nH]cn2)NC(=O)[C@H](Cc2c[nH]cn2)NC(=O)CNC(=O)[C@H](Cc2c[nH]c3ccccc23)NC(=O)[C@H](C)NC(=O)[C@H](CCC(N)=O)NC1=O [XVIII] (H-CVVQAWGHHRC-NH2; disulfide 1-11)
[1]; read-out: A[…] IC50
  IC50: 257 µM

## CC(C)[C@@H]1NC(=O)[C@H](C(C)C)NC(=O)[C@@H](N)CSSC[C@@H](C(N)=O)NC(=O)[C@H](CCCNC(=N)N)NC(=O)[C@H](Cc2c[nH]cn2)NC(=O)[C@H](Cc2c[nH]cn2)NC(=O)CNC(=O)[C@H](Cc2c[nH]c3ccccc23)NC(=O)[C@H](CC(=O)O)NC(=O)[C@H](C)NC1=O [XVII] (H-CVVADWGHHRC-NH2; disulfide 1-11)
[1]; read-out: A[…] IC50
  IC50: 910 µM

## CC(C)[C@@H]1NC(=O)[C@@H](N)CSSC[C@@H](C(N)=O)NC(=O)[C@H](CCCNC(=N)N)NC(=O)[C@H](Cc2c[nH]cn2)NC(=O)[C@H](Cc2c[nH]cn2)NC(=O)CNC(=O)[C@H](Cc2c[nH]c3ccccc23)NC(=O)[C@H](CC(=O)O)NC(=O)[C@H](CCC(N)=O)NC(=O)[C@H](C)NC1=O [XVI] (H-CVAQDWGHHRC-NH2; disulfide 1-11)
[1]; read-out: A[…] IC50
  IC50: 67 µM

## CC(C)[C@@H]1NC(=O)[C@H](C)NC(=O)[C@@H](N)CSSC[C@@H](C(N)=O)NC(=O)[C@H](CCCNC(=N)N)NC(=O)[C@H](Cc2c[nH]cn2)NC(=O)[C@H](Cc2c[nH]cn2)NC(=O)CNC(=O)[C@H](Cc2c[nH]c3ccccc23)NC(=O)[C@H](CC(=O)O)NC(=O)[C@H](CCC(N)=O)NC1=O [XV] (H-CAVQDWGHHRC-NH2; disulfide 1-11)
[1]; read-out: A[…] IC50
  IC50: 1200 µM

## CC(C)[C@@H]1NC(=O)[C@H](C(C)C)NC(=O)[C@@H](N)CSSC[C@@H](C(N)=O)NC(=O)[C@H](C)NC(=O)[C@H](Cc2c[nH]cn2)NC(=O)[C@H](Cc2c[nH]cn2)NC(=O)CNC(=O)[C@H](Cc2c[nH]c3ccccc23)NC(=O)[C@H](CC(=O)O)NC(=O)[C@H](CCC(N)=O)NC1=O [XXIII] (H-CVVQDWGHHAC-NH2; disulfide 1-11)
[1]; [3]
  IC50: 70 µM

## CC(C)[C@@H]1NC(=O)[C@H](C(C)C)NC(=O)[C@@H](N)CSSC[C@@H](C(N)=O)NC(=O)[C@H](CCCNC(=N)N)NC(=O)[C@H](C)NC(=O)[C@H](Cc2c[nH]cn2)NC(=O)CNC(=O)[C@H](Cc2c[nH]c3ccccc23)NC(=O)[C@H](CC(=O)O)NC(=O)[C@H](CCC(N)=O)NC1=O [XXII] (H-CVVQDWGHARC-NH2; disulfide 1-11)
[1]; read-out: A[…] IC50
  IC50: 74 µM

## CC(C)[C@@H]1NC(=O)[C@H](C(C)C)NC(=O)[C@@H](N)CSSC[C@@H](C(N)=O)NC(=O)[C@H](CCCNC(=N)N)NC(=O)[C@H](Cc2c[nH]cn2)NC(=O)[C@H](C)NC(=O)CNC(=O)[C@H](Cc2c[nH]c3ccccc23)NC(=O)[C@H](CC(=O)O)NC(=O)[C@H](CCC(N)=O)NC1=O [XXI] (H-CVVQDWGAHRC-NH2; disulfide 1-11)
[1]; read-out: A[…] IC50
  IC50: 15 µM

## CC(C)[C@@H]1NC(=O)[C@H](C(C)C)NC(=O)[C@@H](N)CSSC[C@@H](C(N)=O)NC(=O)[C@H](CCCNC(=N)N)NC(=O)[C@H](Cc2c[nH]cn2)NC(=O)[C@H](Cc2c[nH]cn2)NC(=O)[C@H](C)NC(=O)[C@H](Cc2c[nH]c3ccccc23)NC(=O)[C@H](CC(=O)O)NC(=O)[C@H](CCC(N)=O)NC1=O [XX] (H-CVVQDWAHHRC-NH2; disulfide 1-11)
[1]; read-out: A[…] IC50
  IC50: > 1200 µM

## C[C@@H](O)[C@H](NC(=O)[C@@H]1CSSC[C@H](N)C(=O)N[C@@H](CC(=O)O)C(=O)N[C@@H](Cc2c[nH]c3ccccc23)C(=O)NCC(=O)N[C@@H](Cc2c[nH]cn2)C(=O)N[C@@H](Cc2c[nH]cn2)C(=O)N[C@@H](CCCNC(=N)N)C(=O)N1)C(N)=O [X] (H-CDWGHHRCT-NH2; disulfide 1-8)
[1]; [3]
  IC50: > 600 µM

## ICVVQDWGHHRCTAGHYY [SEQ ID NO: 23, peptide of the invention containing tyrosine residues at its C-terminus]
[2]
  activity in hemolytic assay: equal activity to Peptide IV
